In paper PMC11659602, “Discovering covalent cyclic peptide inhibitors of peptidyl arginine deiminase 4 (PADI4) using mRNA-display with a genetically encoded electrophilic warhead” (Communications Chemistry, 2024):
Where “and” joins values, the source holds several entries; their conditions need not be identical. Equal entries are not always repeated. Where two headings read alike, the source gives them in different places. Where a SMILES comes first, the peptide text is derived from it. Bridges are numbered along the chain shown (N, C = ends). [ ]: non-standard residue; d: D form. Orn(fluoroacetimidoyl) = N=C(CF)NCCC[C@H](N)C(=O)O

How the values were obtained:
Format in all cases: biochemical
[1] = molecular target: T1, PADI4 (Homo sapiens, UniProt Q9UM07); experiment: COLDER inhibition assay, BAEE substrate, with or without 1 h preincubation; details: for IC50: COLDER; for remaining activity at 0.003 µM: peptide 0.003 µM; for remaining activity at 0.01 µM: peptide 0.01 µM; for remaining activity at 0.03 µM: peptide 0.03 µM; for remaining activity at 0.1 µM: peptide 0.1 µM; for remaining activity at 0.3 µM: peptide 0.3 µM; for remaining activity at 1 µM: peptide 1 µM; for remaining activity at 3 µM: peptide 3 µM
T1 construct: His6; made in house
Procedure, shortened: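 50 nM His-PADI4 with peptide (final 0.1× the 0.03-500 µM series), 0.6 mg/mL BSA, 10 mM CaCl2 in 50 mM HEPES, 150 mM NaCl, 2 mM DTT, pH 7.5, with or without 1 h preincubation before 10 mM BAEE. After 30 min at rt, EDTA-quenched; citrulline read colorimetrically at 540 nm; mean ± SEM, ≥2 replicates.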

[2] = molecular target: T1, PADI4; experiment: Incubation time-dependent COLDER assay IC50(t), Krippendorff fit; details: for Ki / kinact: Krippendorff fit of IC50 vs time
Experimental: (§1) To determine KI and kinact of covalent peptide inhibitors, COLDER assays were used[52]. Peptide dilutions were prepared using 5-fold dilutions from 500 µM and 300 µM to 0.8 µM and 2.4 µM, respectively, at 1% DMSO in COLDER buffer (50 mM HEPES, 150 mM NaCl and 2 mM DTT, pH 7.5). The 9 peptide dilutions were added to a 96-well plate, alongside a 1% DMSO control. An equal volume of 10 mM BAEE was added to each well and the solution was homogenised by pipette mixing. This was mixed with 50 nM His-PADI4, 0.6 mg/mL BSA and 10 mM CaCl2, in COLDER buffer, to bring the final volume to 300 µL in each well. Alternatively, His-PAD1 (100 nM) /His-PADI2 (100 nM) /His-PADI3 (250 nM) were used. For assays with PADI1 and PADI3, 10 mM N^α-benzoyl-L-arginine methyl […] (BAME) was used as the substrate instead of BAEE[48],[58],[59]. At 15-minute intervals, for 5 timepoints, 50 µL of solution was taken from each well and quenched with 10 µL EDTA (300 mM). 200 µL of COLDER solution containing 20 mM diacetyl monoxime/2,3-butanedione monoxime (Merck), 0.5 mM thiosemicarbazide (Acros Organics), 2.25 M H3PO4, 4.5 M H2SO4 and 1.5 mM NH4Fe(SO4)2.12H2O was added to each well. Samples were incubated for 20 min at 95 °C before measuring absorbance at 540 nm on a CLARIOstar Plus (BMG LABTECH). IC50 values for each time point were determined using non-linear regression with GraphPad Prism. Incubation time–dependent potency IC50(t) against incubation time was fitted to the Krippendorff equation (below) to determine KI and kinact using a Python script[53],[59]. […] IC50t=KI1+S/KM⋅2−2e^−ηIC50⋅kinact⋅t/ηIC50⋅kinact⋅t−1 WhereηIC50=IC50t/KI1+S/KM+IC50t

[3] = molecular target: T2, PADI2 (Homo sapiens, UniProt Q9Y2J8); experiment: Incubation time-dependent COLDER assay, selectivity; details: for PADI2 activity normalised to 0.1% DMSO: quenched after 60 mins
T2 construct: His6; made in house
Experimental: as §1

[4] = 1 h preincubation of peptide and PADI4, 10 mM CaCl2, read-out: IC50 Values 1 h preincubation
[5] = no preincubation of peptide and PADI4, 10 mM CaCl2, read-out: IC50 Values 0 h preincubation
[6] = T=0, values starred, read-out: PADI4 activity normalised to 0.1% DMSO
[7] = T=1, read-out: PADI4 activity normalised to 0.1% DMSO
[8] = T=0, read-out: PADI4 activity normalised to 0.1% DMSO
[9] = 15 mins, replicates, read-out: apparent IC50
[10] = 30 mins, replicates, read-out: apparent IC50
[11] = 45 mins, replicates, read-out: apparent IC50
[12] = 60 mins, replicates, read-out: apparent IC50
[13] = 75 mins, replicates, read-out: apparent IC50

T1 sequence (Q9UM07 whole entry): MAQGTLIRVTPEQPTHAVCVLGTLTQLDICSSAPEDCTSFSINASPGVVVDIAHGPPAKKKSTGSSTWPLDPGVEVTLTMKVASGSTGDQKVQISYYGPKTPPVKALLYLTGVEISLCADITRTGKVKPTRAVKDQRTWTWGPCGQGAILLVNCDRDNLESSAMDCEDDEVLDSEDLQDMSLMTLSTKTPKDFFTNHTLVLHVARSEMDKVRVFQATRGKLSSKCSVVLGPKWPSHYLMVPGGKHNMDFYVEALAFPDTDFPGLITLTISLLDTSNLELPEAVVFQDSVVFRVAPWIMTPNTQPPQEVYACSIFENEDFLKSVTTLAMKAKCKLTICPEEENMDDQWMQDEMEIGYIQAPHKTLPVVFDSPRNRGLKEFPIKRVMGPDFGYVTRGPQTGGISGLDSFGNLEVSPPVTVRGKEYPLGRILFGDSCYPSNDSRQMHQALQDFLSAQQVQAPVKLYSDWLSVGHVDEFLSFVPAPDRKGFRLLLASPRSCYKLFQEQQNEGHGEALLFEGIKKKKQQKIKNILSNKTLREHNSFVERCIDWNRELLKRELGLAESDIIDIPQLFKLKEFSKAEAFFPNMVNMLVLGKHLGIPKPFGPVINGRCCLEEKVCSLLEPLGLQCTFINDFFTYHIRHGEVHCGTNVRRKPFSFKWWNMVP
T2 sequence (Q9Y2J8 whole entry, species assumed): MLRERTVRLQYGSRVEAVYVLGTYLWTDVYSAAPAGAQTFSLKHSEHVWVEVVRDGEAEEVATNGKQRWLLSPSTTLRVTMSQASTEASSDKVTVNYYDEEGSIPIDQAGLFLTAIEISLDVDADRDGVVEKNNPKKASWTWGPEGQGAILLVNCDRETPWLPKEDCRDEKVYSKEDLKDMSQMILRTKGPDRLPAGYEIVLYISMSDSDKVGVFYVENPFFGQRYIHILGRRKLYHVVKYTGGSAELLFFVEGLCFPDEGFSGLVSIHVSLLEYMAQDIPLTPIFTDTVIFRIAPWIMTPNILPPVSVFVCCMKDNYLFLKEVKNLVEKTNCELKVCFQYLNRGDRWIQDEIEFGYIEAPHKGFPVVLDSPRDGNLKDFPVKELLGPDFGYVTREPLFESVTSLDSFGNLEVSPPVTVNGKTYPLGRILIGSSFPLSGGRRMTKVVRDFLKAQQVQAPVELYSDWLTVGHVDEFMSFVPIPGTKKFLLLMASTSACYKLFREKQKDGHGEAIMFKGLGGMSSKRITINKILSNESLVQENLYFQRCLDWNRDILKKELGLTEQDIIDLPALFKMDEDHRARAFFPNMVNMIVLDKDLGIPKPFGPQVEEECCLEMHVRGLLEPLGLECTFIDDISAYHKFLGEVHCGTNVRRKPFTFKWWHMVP

## CC(C)C[C@@H]1NC(=O)[C@H](CCCCN)NC(=O)[C@H](CO)NC(=O)[C@H](CO)NC(=O)[C@H](Cc2ccc(O)cc2)NC(=O)[C@H](Cc2c[nH]cn2)NC(=O)[C@H](CCCNC(=N)CF)NC(=O)[C@H](CC(=O)O)NC(=O)[C@H](CC(C)C)NC(=O)[C@@H](Cc2ccc(O)cc2)NC(=O)CSC[C@@H](C(=O)NCC(N)=O)NC(=O)[C@H](Cc2ccc(O)cc2)NC1=O [cP4_15, yLD(2)HYSSKLYCG] ({CH2CO}-[dY]LD[Orn(fluoroacetimidoyl)]HYSSKLYCG-NH2; thioether N-12)
[1]; [4]
  IC50: 0.052 ± 0.002 µM
[1]; [5]
  IC50: 1.6 ± 0.03 µM
[1]; [6]
  remaining activity at 0.003 µM: 95.7%
  remaining activity at 0.01 µM: 92.2%
[1]; [7]
  remaining activity at 0.003 µM: 87.4%
  remaining activity at 0.01 µM: 88.3%
  remaining activity at 0.03 µM: 81.5%
[1]; [8]
  remaining activity at 0.03 µM: 95.8%
  remaining activity at 0.1 µM: 88.7%
  remaining activity at 0.3 µM: 82.7%
  remaining activity at 1 µM: 61.2%
  remaining activity at 3 µM: 32.3%
[2]
  kinact/KI: 3550 M⁻¹ s⁻¹
  Ki: 0.78 ± 0.06 µM
  kinact: 0.00283 s⁻¹
[2]; 60-minute time point, no preincubation, read-out: PADI4 IC50
  IC50: 0.85 µM
[2]; [9]
  IC50: 4.15 µM and 3.69 µM and 2.68 µM
[2]; [10]
  IC50: 1.49 µM and 1.39 µM and 1.52 µM
[2]; [11]
  IC50: 0.996 µM and 1.15 µM and 1.21 µM
[2]; 1 h, 0.048 µM, quenched after 60 mins, read-out: PADI4 activity normalised to 0.1% DMSO
  remaining activity at 0.048 µM: 98.8%
[2]; 1 h, 0.08 µM, quenched after 60 mins, read-out: PADI4 activity normalised to 0.1% DMSO
  remaining activity at 0.08 µM: 93.4%
[2]; 1 h, 0.24 µM, quenched after 60 mins, read-out: PADI4 activity normalised to 0.1% DMSO
  remaining activity at 0.24 µM: 87.8%
[2]; 1 h, 0.4 µM, quenched after 60 mins, read-out: PADI4 activity normalised to 0.1% DMSO
  remaining activity at 0.4 µM: 76.7%
[2]; 1 h, 1.2 µM, quenched after 60 mins, read-out: PADI4 activity normalised to 0.1% DMSO
  remaining activity at 1.2 µM: 35.6%
[2]; 1 h, 2 µM, quenched after 60 mins, read-out: PADI4 activity normalised to 0.1% DMSO
  remaining activity at 2 µM: 23.1%
[2]; 1 h, 6 µM, quenched after 60 mins, read-out: PADI4 activity normalised to 0.1% DMSO
  remaining activity at 6 µM: 12.5%
[2]; 1 h, 10 µM, quenched after 60 mins, read-out: PADI4 activity normalised to 0.1% DMSO
  remaining activity at 10 µM: 7.1%
[2]; [12]
  IC50: 0.809 µM and 0.775 µM and 0.965 µM
[2]; [13]
  IC50: 0.752 µM and 0.784 µM and 0.78 µM
[3]; 0.08 µM
  PADI2 activity normalised to 0.1% DMSO: 102.409 and 98.7439
[3]; 0.24 µM
  PADI2 activity normalised to 0.1% DMSO: 101.533 and 89.4278
[3]; 0.4 µM
  PADI2 activity normalised to 0.1% DMSO: 100.438 and 90.9979
[3]; 1.2 µM
  PADI2 activity normalised to 0.1% DMSO: 102.409 and 98.4299
[3]; 2 µM
  PADI2 activity normalised to 0.1% DMSO: 106.46 and 98.5345
[3]; 6 µM
  PADI2 activity normalised to 0.1% DMSO: 102.299 and 92.9867
[3]; 10 µM
  PADI2 activity normalised to 0.1% DMSO: 102.956 and 100.105
[3]; 30 µM
  PADI2 activity normalised to 0.1% DMSO: 100.219 and 95.1849
[3]; 50 µM
  PADI2 activity normalised to 0.1% DMSO: 83.0292 and 85.4501

## N=C(N)NCCC[C@@H]1NC(=O)[C@H](CCCNC(=N)CF)NC(=O)[C@H](CC(=O)O)NC(=O)[C@H](Cc2ccc(O)cc2)NC(=O)[C@H](CCCCN)NC(=O)[C@H](CO)NC(=O)[C@@H](Cc2ccc(O)cc2)NC(=O)CSC[C@@H](C(=O)NCC(N)=O)NC(=O)[C@H](CC(=O)O)NC(=O)[C@H](CCCNC(=N)N)NC(=O)[C@@H]2CCCN2C(=O)[C@H](CO)NC1=O [cP4_4, ySKYD(2)RSPRDCG] ({CH2CO}-[dY]SKYD[Orn(fluoroacetimidoyl)]RSPRDCG-NH2; thioether N-12)
[1]; [4]
  IC50: 0.07 ± 0.004 µM
[1]; [5]
  IC50: 4.4 ± 0.07 µM
[1]; [6]
  remaining activity at 0.003 µM: 97.2%
  remaining activity at 0.01 µM: 92.4%
[1]; [7]
  remaining activity at 0.003 µM: 84.1%
  remaining activity at 0.01 µM: 86.9%
  remaining activity at 0.03 µM: 73.7%
  remaining activity at 0.1 µM: 29.1%
[1]; [8]
  remaining activity at 0.03 µM: 93.5%
  remaining activity at 0.1 µM: 90.5%
  remaining activity at 0.3 µM: 87.5%
  remaining activity at 1 µM: 76.3%
  remaining activity at 3 µM: 53.9%
[1]; peptide 10 µM, T=0, read-out: PADI4 activity normalised to 0.1% DMSO
  remaining activity at 10 µM: 20.8%
[1]; peptide 30 µM, T=0, read-out: PADI4 activity normalised to 0.1% DMSO
  remaining activity at 30 µM: 8.03%
[2]
  kinact/KI: 1230 M⁻¹ s⁻¹
  Ki: 1.9 ± 0.1 µM
  kinact: 0.00217 s⁻¹
[2]; [9]
  IC50: 8.81 µM and 8.73 µM and 8.28 µM
[2]; [10]
  IC50: 4.67 µM and 4.78 µM and 4.31 µM
[2]; [11]
  IC50: 3.42 µM and 4.19 µM and 3.18 µM
[2]; [12]
  IC50: 3.08 µM and 3.1 µM and 2.67 µM
[2]; [13]
  IC50: 2.72 µM and 2.53 µM and 2.47 µM
[2]; cP4_4 0.08 µM
  PADI4 activity, normalised (Figure S11c): 98.2718 and 96.1223 and 99.8314
[2]; cP4_4 0.24 µM
  PADI4 activity, normalised (Figure S11c): 93.4756 and 94.2113
[2]; cP4_4 0.4 µM
  PADI4 activity, normalised (Figure S11c): 100.554 and 87.7482
[2]; cP4_4 1.2 µM
  PADI4 activity, normalised (Figure S11c): 75.0589 and 75.4411 and 70.326
[2]; cP4_4 2 µM
  PADI4 activity, normalised (Figure S11c): 67.2548 and 61.3338
[2]; cP4_4 6 µM
  PADI4 activity, normalised (Figure S11c): 29.9549 and 26.3769
[2]; cP4_4 10 µM
  PADI4 activity, normalised (Figure S11c): 22.5225 and 20.5991 and 19.0146
[2]; cP4_4 30 µM
  PADI4 activity, normalised (Figure S11c): 7.3132 and 8.5351 and 5.9198
[2]; cP4_4 50 µM
  PADI4 activity, normalised (Figure S11c): 3.0999 and 5.4575 and 3.9528
[3]; cP4_4 0.08 µM
  PADI2 activity, normalised (Figure S11c): 99.789 and 100
[3]; cP4_4 0.24 µM
  PADI2 activity, normalised (Figure S11c): 95.7806 and 93.2203
[3]; cP4_4 0.4 µM
  PADI2 activity, normalised (Figure S11c): 102.532 and 106.78
[3]; cP4_4 1.2 µM
  PADI2 activity, normalised (Figure S11c): 102.954 and 112.106
[3]; cP4_4 2 µM
  PADI2 activity, normalised (Figure S11c): 97.2574 and 108.91
[3]; cP4_4 6 µM
  PADI2 activity, normalised (Figure S11c): 96.6245 and 106.586
[3]; cP4_4 10 µM
  PADI2 activity, normalised (Figure S11c): 98.7342 and 104.552
[3]; cP4_4 30 µM
  PADI2 activity, normalised (Figure S11c): 95.8861 and 92.155
[3]; cP4_4 50 µM
  PADI2 activity, normalised (Figure S11c): 84.8101 and 93.6077
